Here are results for three molecules from US10987349B2, “Antitumor agent and bromodomain inhibitor” (FUJIFILM Corporation, priority 2016, dated 2021).

One test has as its target T1, BRD4 BD1 (Homo sapiens, UniProt O60885).
T1 construct: BRD2 BD1, BRD3 BD1 and BRD4 BD1 (Cisbio); purchased Cisbio
Briefly: Binding assay, BRD4 BD1 to acetylated histone H4 Peptide-Biotin (EPIgeneous Binding Domain Kit A). Conditions: for inhibition at 0.3 µM: test compound at 300 nmol/L, read-out: Binding inhibition percentage BRD4 BD1. Put shortly:
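HTRF competition: bromodomain protein (added at 20 nmol/L) and biotinylated tetra-acetyl H4(1-25) peptide (added at 25 nmol/L) were incubated with compound, streptavidin-d2 and anti-GST Eu cryptate for 20 h at room temperature. Inhibition came from the 665/620 nm ratio relative to DMSO; IC50 by four-parameter fit; some compounds were tested only at 300 nmol/L final.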

A further test deals with T2, BRD2 BD2 (Homo sapiens, UniProt P25440).
T2 construct: BRD2 BD2, BRD3 BD2 and BRD4 BD2 (Cisbio); purchased Cisbio
T2 sequence (P25440 344-453 limits assumed): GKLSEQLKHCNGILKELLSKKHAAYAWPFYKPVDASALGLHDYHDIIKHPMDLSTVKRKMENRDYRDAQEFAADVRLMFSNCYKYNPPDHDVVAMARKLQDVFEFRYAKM
Kind of test: Binding assay, BRD2 BD2 to acetylated histone H4 Peptide-Biotin (EPIgeneous Binding Domain Kit B). Conditions: for inhibition at 0.3 µM: test compound at 300 nmol/L, read-out: Binding inhibition percentage BRD2 BD2. Put shortly: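 HTRF binding of GST-tagged BD2 (20 nmol/L working stock) to biotinylated acetyl-histone H4 peptide (250 nmol/L working stock), using streptavidin-XL665 and anti-GST Eu cryptate. Incubated 20 h at room temperature; 665/620 nm ratio versus DMSO gives % inhibition; IC50 by four-parameter fit, or % inhibition at 300 nmol/L.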

Test [1] deals with MV4-11 subcutaneously transplanted tumor. Briefly: Medicinal effect test, MV4-11-subcutaneously-transplanted cancer-bearing mouse models, oral administration. In kind it is in vivo. Conditions: orally, once per day, 14 days, BALB/c nu/nu mice. On the procedure:
The human acute myeloid leukemia cell line MV4-11 (ATCC) was suspended in a mixture of RPMI-1640 medium and Matrigel (Corning), and the obtained mixture was then subcutaneously transplanted into 6-week-old female BALB/c nu/nu mice (CLEA Japan, Inc.). After confirming that the average tumor volume exceeded 200 mm^3, a test compound was dissolved in a solvent (a 0.5% methyl cellulose aqueous solution or water containing 1 equivalent of hydrochloric acid), and the obtained solution was then orally administered to the mice at a daily dose of 10 to 30 mg/kg, once per day, for 14 days. As a negative control, a solvent administration group involving administration of a 0.5% methyl cellulose aqueous solution was established. The tumor diameter was measured on a daily basis, and the tumor volume was calculated. The tumor volume was calculated by measuring the major axis and minor axis of the tumor and then applying the following equation. Tumor volume (mm^3)=[major axis (mm)×minor axis (mm)×minor axis (mm)]/2
T/C (%) was calculated from the average tumor volume of each group according to the following equation, and medicinal effects were then evaluated. T/C(%)=[1−(average tumor volume of drug administration group)/(average tumor volume of solvent administration group)]×100%

In test [2] the test system is human cervical epidermoid carcinoma cell line Hela. Briefly: Cell growth test (Cell Titer Glo) Hela. In kind it is cell-based. The note with it: 3 to 5 days. An excerpt:
The human undifferentiated thymoma cell line Ty-82 (JCRB), the human acute myeloid leukemia cell lines MV4-11 (ATCC), MOLM-13 (ATCC) and RS4-11 (ATCC), the human lymphoma cell line Raji (JCRB), the human cervical epidermoid carcinoma cell line Hela (JCRB), the human lung adenocarcinoma cell line A549 (ATCC), the human colon cancer cell lines DLD1 (DS Pharma) and HCT116 (DS Pharma), and the human pancreatic cancer cell line MIAPACA-2 (ATCC) were used to carry out a cell growth test.
Ty-82, MV4-11, MOLM-13, RS4-11, Raji and DLD1 were each seeded in a well plate, in which Roswell Park Memorial Institute (RPMI)-1640 medium supplemented with penicillin/streptomycin and fetal bovine serum (FBS) with a final concentration of 10% was placed. Hela was seeded in Dulbecco's Modified Eagle's medium (DMEM) supplemented with penicillin/streptomycin and FBS with a final concentration of 10%. A549 and MIAPACA-2 were each seeded in a well plate, in which Minimum Essential Medium (MEM) supplemented with penicillin/streptomycin and FBS with a final concentration of 10% was placed. […]
Thereafter, a medium containing a test compound serially diluted with DMSO, or DMSO, was added to each well of the plate, in which the cells had been seeded, and the obtained mixture was then cultured under conditions of 37° C. and 5% CO2 for 3 to 5 days. Cell Titer Glo reaction solution (Promega) was added to the culture, and the amount of luminescence was then measured using Envision plate reader (PerkinElmer). Since the amount of luminescence is in proportion to the concentration of adenosine triphosphate (ATP) in cells, the amount of luminescence was used as an indicator of the number of living cells. The growth inhibition percentage of the test compound in each concentration was calculated according to the following equation. Growth inhibition percentage (%)=(amount of luminescence in test compound−added well)/(amount of luminescence in DMSO−added well)×100 […]
In general terms: Cellular ATP, detected with luciferase, serves as a proxy for viable cell number.

SMILES strings stand for the structures.

Take `CCn1c(=O)cc(C2CCN(C)CC2)c2cc(C(=O)N(C)c3ccc(C)cc3)ccc21` [Example 14, 1-Ethyl-N-methyl-N-(4-methylphenyl)-4-(1-methylpiperidin-4-yl)-2-oxo-1,2-dihydroquinoline-6-carboxamide]: the values for the IC50 at BRD4 BD1 and at BRD2 BD2 were 5 nM and 94 nM, respectively. The results for the inhibition at 0.3 µM at BRD4 BD1 and at BRD2 BD2 were 93% and 74%, respectively. Further, the entries for the “T/C (%)” value in test [1] (10 mg/kg) and in test [1] (30 mg/kg) were 34% and 45%, respectively. Besides, the GI50 (usually the concentration giving 50% growth inhibition) in test [2] was 570 nM.
Regarding `CCn1c(=O)cc(N2CCOCC2)c2cc(-n3c(-c4ccc(Cl)cc4)c[nH]c3=O)ccc21` [Example 245, 6-(5-(4-chlorophenyl)-2-oxo-2,3-dihydro-1H-imidazol-1-yl)-1-ethyl-4-(morpholin-4-yl)quinolin-2(1H)-one], on BRD4 BD1, the IC50 (in general, the concentration at which inhibition is half-maximal) came out at 20 nM and the inhibition (commonly the percentage by which the read-out fell short of the control) at 0.3 µM turned out to be 91%. Besides, at BRD2 BD2, the IC50 came out at 7 nM and the inhibition at 0.3 µM was 89%. Besides, the “T/C (%)” value in test [1] (30 mg/kg) was found to be 42%. Besides, the GI50 in test [2] amounted to 1860 nM.
For the molecule `CCn1c(=O)cc(C2CCN(C)CC2)c2cc(C(=O)N(C)c3ccc4c(c3)CCC4)ccc21` [Example 17, N-(2,3-dihydro-1H-inden-5-yl)-1-ethyl-N-methyl-4-(1-methylpiperidin-4-yl)-2-oxo-1,2-dihydroquinoline-6-carboxamide], the IC50 is 3 nM at BRD4 BD1 and 33 nM on BRD2 BD2. Moreover, the inhibition at 0.3 µM at BRD4 BD1 amounted to 94%; at BRD2 BD2 it was 85%. In addition, the “T/C (%)” value in test [1] (10 mg/kg) was found to be 21%; in test [1] (30 mg/kg), 49%. In addition, growth in test [2] was halved (GI50) at 314 nM.
